Measured values as given in patent US10758534B2 (Vertex Pharmaceuticals Incorporated, priority 2014, dated 2020).

Biological target: T1, F508del (Homo sapiens, UniProt P13569, DEL508-508)
T1 construct: expressed in transfected cells
Assay: Protocol 1: membrane potential optical assay (FLIPR III, voltage sensing dye), identification of potentiator compounds
Format: cell-based
Settings: Table 3, compounds of Table 1
Source text: Membrane Potential Optical Methods for Assaying F508del Modulation Properties of Compounds
The assay utilizes fluorescent voltage sensing dyes to measure changes in membrane potential using a fluorescent plate reader (e.g., FLIPR III, Molecular Devices, Inc.) as a readout for increase in functional F508del in NIH 3T3 cells. The driving force for the response is the creation of a chloride ion gradient in conjunction with channel activation by a single liquid addition step after the cells have previously been treated with compounds and subsequently loaded with a voltage sensing dye.
Identification of Potentiator Compounds
To identify potentiators of F508del, a double-addition HTS assay format was developed. This HTS assay utilizes fluorescent voltage sensing dyes to measure changes in membrane potential on the FLIPR III as a measurement for increase in gating (conductance) of F508del in temperature-corrected F508del NIH 3T3 cells. The driving force for the response is a Cl^− ion gradient in conjunction with channel activation with forskolin in a single liquid addition step using a fluorescent plate reader such as FLIPR III after the cells have previously been treated with potentiator compounds (or DMSO vehicle control) and subsequently loaded with a redistribution dye.
Bath Solution #1: (in mM) NaCl 160, KCl 4.5, CaCl2 2, MgCl2 1, HEPES 10, pH 7.4 with NaOH.
Chloride-free bath solution: Chloride salts in Bath Solution #1 (above) are substituted with gluconate salts.
NIH3T3 mouse fibroblasts stably expressing F508del are used for optical measurements of membrane potential. The cells are maintained at 37° C. in 5% CO2 and 90% humidity in Dulbecco's modified Eagle's medium supplemented with 2 mM glutamine, 10% fetal bovine serum, 1×NEAA, β-ME, 1× pen/strep, and 25 mM HEPES in 175 cm^2 culture flasks. For all optical assays, the cells were seeded at ˜20,000/well in 384-well matrigel-coated plates and cultured for 2 hrs at 37° C. before culturing at 27° C. for 24 hrs. for the potentiator assay. For the correction assays, the cells are cultured at 27° C. or 37° C. with and without compounds for 16-24 hours.

T1 sequence (P13569 with tags, fused parts or gaps DEL508-508): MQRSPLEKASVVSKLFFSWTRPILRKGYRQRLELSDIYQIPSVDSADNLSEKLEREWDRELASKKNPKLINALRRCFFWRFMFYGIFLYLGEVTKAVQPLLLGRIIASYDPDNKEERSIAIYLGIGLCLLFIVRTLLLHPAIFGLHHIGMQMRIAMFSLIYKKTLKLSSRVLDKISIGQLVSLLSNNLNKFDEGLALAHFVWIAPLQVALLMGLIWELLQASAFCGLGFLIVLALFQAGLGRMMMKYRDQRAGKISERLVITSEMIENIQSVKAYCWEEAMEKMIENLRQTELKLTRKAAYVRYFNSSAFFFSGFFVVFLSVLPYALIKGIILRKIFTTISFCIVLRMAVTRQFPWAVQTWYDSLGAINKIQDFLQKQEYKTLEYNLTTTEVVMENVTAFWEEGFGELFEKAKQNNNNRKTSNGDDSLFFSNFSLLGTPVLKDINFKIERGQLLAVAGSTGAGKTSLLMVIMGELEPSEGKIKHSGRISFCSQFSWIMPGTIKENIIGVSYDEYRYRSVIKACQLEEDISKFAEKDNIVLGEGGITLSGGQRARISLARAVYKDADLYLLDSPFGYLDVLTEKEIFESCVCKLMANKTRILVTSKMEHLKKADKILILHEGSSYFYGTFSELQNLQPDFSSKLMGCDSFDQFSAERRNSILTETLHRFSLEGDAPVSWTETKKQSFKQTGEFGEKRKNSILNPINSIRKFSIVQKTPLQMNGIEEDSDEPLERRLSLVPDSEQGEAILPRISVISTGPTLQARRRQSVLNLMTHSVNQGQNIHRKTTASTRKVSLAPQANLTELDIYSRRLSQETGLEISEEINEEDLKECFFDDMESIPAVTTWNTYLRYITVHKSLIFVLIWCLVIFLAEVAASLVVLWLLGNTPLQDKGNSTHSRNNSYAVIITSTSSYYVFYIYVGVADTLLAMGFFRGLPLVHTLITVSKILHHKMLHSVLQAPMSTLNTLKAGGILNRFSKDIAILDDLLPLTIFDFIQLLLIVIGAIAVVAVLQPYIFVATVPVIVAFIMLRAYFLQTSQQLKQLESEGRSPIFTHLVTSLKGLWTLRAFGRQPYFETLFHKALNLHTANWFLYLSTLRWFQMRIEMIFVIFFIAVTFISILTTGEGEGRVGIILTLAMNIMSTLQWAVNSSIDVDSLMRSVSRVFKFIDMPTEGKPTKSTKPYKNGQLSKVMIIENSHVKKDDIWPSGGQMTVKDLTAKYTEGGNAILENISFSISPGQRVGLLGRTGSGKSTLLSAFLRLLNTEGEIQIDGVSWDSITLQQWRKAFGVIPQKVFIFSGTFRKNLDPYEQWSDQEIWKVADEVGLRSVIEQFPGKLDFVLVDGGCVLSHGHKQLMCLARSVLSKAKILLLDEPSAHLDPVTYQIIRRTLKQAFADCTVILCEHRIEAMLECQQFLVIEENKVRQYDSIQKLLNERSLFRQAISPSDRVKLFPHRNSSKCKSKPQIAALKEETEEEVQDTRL

Row | SMILES | EC30
1 | CCC1(C)CC(C)CN1c1nc(-c2cc(F)cc(OCC(C)C)c2)ccc1C(=O)NS(=O)(=O)c1cccc(N)n1 (single isomer, unassigned) [Compound 1729, N-[(6-amino-2-pyridyl)sulfonyl]-2-(2-ethyl-2,4-dimethyl-pyrrolidin-1-yl)-6-(3-fluoro-5-isobutoxy-phenyl)pyridine-3-carboxamide] | +++ (“+++” means <3 uM)
2 | CC[C@]1(C)C[C@H](C)CN1c1nc(-c2cc(F)cc(OCC(C)C)c2)ccc1C(=O)NS(=O)(=O)c1cccc(N)n1 (single isomer, unassigned) [Compound 1817, N-[(6-amino-2-pyridyl)sulfonyl]-2-(2-ethyl-2,4-dimethyl-pyrrolidin-1-yl)-6-(3-fluoro-5-isobutoxy-phenyl)pyridine-3-carboxamide] | +++ (“+++” means <3 uM)
3 | CC(C)COc1cc(F)cc(-c2ccc(C(=O)NS(=O)(=O)c3cccc(N)n3)c(N3CC(C)CCC3C)n2)c1 (single isomer, unassigned) [Compound 1855, N-[(6-amino-2-pyridyl)sulfonyl]-2-(2,5-dimethyl-1-piperidyl)-6-(3-fluoro-5-isobutoxy-phenyl)pyridine-3-carboxamide] | +++ (“+++” means <3 uM)
4 | CC(C)COc1cc(F)cc(-c2ccc(C(=O)NS(=O)(=O)c3cccc(N)n3)c(N3CCC(C)C(C)C3)n2)c1 (single isomer, unassigned) [Compound 1863, N-[(6-amino-2-pyridyl)sulfonyl]-2-(3,4-dimethyl-1-piperidyl)-6-(3-fluoro-5-isobutoxy-phenyl)pyridine-3-carboxamide] | +++ (“+++” means <3 uM)
5 | CC(C)COc1cc(F)cc(-c2ccc(C(=O)NS(=O)(=O)c3cccc(N)n3)c(N3CC(C)CCC3C)n2)c1 (single isomer, unassigned) [Compound 1864, N-[(6-amino-2-pyridyl)sulfonyl]-2-(2,5-dimethyl-1-piperidyl)-6-(3-fluoro-5-isobutoxy-phenyl)pyridine-3-carboxamide] | +++ (“+++” means <3 uM)
6 | CC(C)COc1cc(F)cc(-c2ccc(C(=O)NS(=O)(=O)c3cccc(N)n3)c(N3CC(C)CCC3C)n2)c1 (single isomer, unassigned) [Compound 1993, N-[(6-amino-2-pyridyl)sulfonyl]-2-(2,5-dimethyl-1-piperidyl)-6-(3-fluoro-5-isobutoxy-phenyl)pyridine-3-carboxamide] | +++ (“+++” means <3 uM)
7 | CC(C)(C)c1cc(C(=O)NS(=O)(=O)c2cccc(N)c2)n(Cc2ccc(Cl)cc2Cl)n1 [Compound 797, N-(3-aminophenyl)sulfonyl-5-tert-butyl-2-[(2,4-dichlorophenyl)methyl]pyrazole-3-carboxamide] | + (“+” means greater than 10 uM)
8 | COc1ncccc1S(=O)(=O)NC(=O)c1ccc(-c2cc(F)cc(OC(C)C)c2)nc1-c1ccc(C)cc1 [Compound 798, 6-(3-fluoro-5-isopropoxy-phenyl)-N-[(2-methoxy-3-pyridyl)sulfonyl]-2-(p-tolyl)pyridine-3-carboxamide] | +++ (“+++” means <3 uM)
9 | CC(c1ccccc1)n1nc(C(C)(C)C)cc1C(=O)NS(=O)(=O)c1cccc(N)c1 (stereo not drawn) [Compound 799, N-(3-aminophenyl)sulfonyl-5-ter-butyl-2-(1-phenylethyl)pyrazole-3-carboxamide] | + (“+” means greater than 10 uM)
10 | CC1CCN(c2nc3c(cc2C(=O)NS(=O)(=O)c2ccn[nH]2)CCCC3(C)C)CC1 [Compound 800, 8,8-dimethyl-2-(4-methyl-1-piperidyl)-N-(1H-pyrazol-5-ylsulfonyl)-6,7-dihydro-5H-quinoline-3-carboxamide] | ++ (“++” means between 3 uM and 10 uM)
11 | Cc1cc(C)c(Oc2nc(-c3cc(F)ccc3F)ccc2C(=O)NS(=O)(=O)c2cccc(N)n2)c(C)c1 [Compound 803, N-[(6-amino-2-pyridyl)sulfonyl]-6-(2,5-difluorophenyl)-2-(2,4,6-trimethylphenoxy)pyridine-3-carboxamide] | +++ (“+++” means <3 uM)
12 | Cc1cc(C)c(Oc2nc(-c3cccc(OCC(C)C)c3F)ccc2C(=O)NS(=O)(=O)c2ccc[nH]c2=O)c(C)c1 [Compound 804, 6-(2-fluoro-3-isobutoxy-phenyl)-N-[(2-oxo-1H-pyridin-3-yl)sulfonyl]-2-(2,4,6-trimethylphenoxy)pyridine-3-carboxamide] | +++ (“+++” means <3 uM)
13 | COc1ccc(C(=O)NS(=O)(=O)c2cccc(N)n2)c(Oc2c(C)cc(C)cc2C)n1 [Compound 806, N-[(6-amino-2-pyridyl)sulfonyl]-6-methoxy-2-(2,4,6-trimethylphenoxy)pyridine-3-carboxamide] | ++ (“++” means between 3 uM and 10 uM)
14 | CC(C)COc1ccc(F)c(-c2ccc(C(=O)NS(=O)(=O)c3cccc(N)n3)c(N3[C@H](C)CC[C@@H]3C)n2)c1 [Compound 807, N-[(6-amino-2-pyridyl)sulfonyl]-2-[(2S,5R)-2,5-dimethylpyrrolidin-1-yl]-6-(2-fluoro-5-isobutoxy-phenyl)pyridine-3-carboxamide] | +++ (“+++” means <3 uM)
15 | Cc1ccc(-c2nc(C(C)(C)C)ccc2C(=O)NS(=O)(=O)c2ccc(O)cc2)cc1 [Compound 809, 6-tert-butyl-N-(4-hydroxyphenyl)sulfonyl-2-(p-tolyl)pyridine-3-carboxamide] | ++ (“++” means between 3 uM and 10 uM)

Results, then the compound that gave them:

Row | EC30 | SMILES
16 | +++ (“+++” means <3 uM) | CC(C)CC(C)Nc1ccc(-c2ccc(C(=O)NS(=O)(=O)c3cccc(N)n3)c(N3[C@H](C)CC[C@@H]3C)n2)cn1 (stereo in doubt) [Compound 1463, N-[(6-amino-2-pyridyl)sulfonyl]-6-[6-[[(1 S)-1,3-dimethylbutyl]amino]-3-pyridyl]-2-[(2S,5R)-2,5-dimethylpyrrolidin-1-yl]pyridine-3-carboxamide]
17 | +++ (“+++” means <3 uM) | CCN(CC)c1ccc(-c2ccc(C(=O)NS(=O)(=O)c3cccc(N)n3)c(N3CC(C)CC3(C)C)n2)cn1 (stereo not drawn) [Compound 796, N-[(6-amino-2-pyridyl)sulfonyl]-6-[6-(diethylamino)-3-pyridyl]-2-(2,2,4-trimethylpyrrolidin-1-yl)pyridine-3-carboxamide]
18 | + (“+” means greater than 10 uM) | Cc1cc(C)c(Oc2nc(-c3cccc(CN)c3)ccc2C(=O)NS(=O)(=O)c2cccc(N)n2)c(C)c1 [Compound 801, 6-[3-(aminomethyl)phenyl]-N-[(6-amino-2-pyridyl)sulfonyl]-2-(2,4,6-trimethylphenoxy)pyridine-3-carboxamide]
19 | +++ (“+++” means <3 uM) | Cc1ccc(-c2ccc(C(=O)NS(=O)(=O)c3cccc(N)n3)c(N3CCC(C)CC3)n2)cc1 [Compound 802, N-[(6-amino-2-pyridyl)sulfonyl]-2-(4-methyl-1-piperidyl)-6-(p-tolyl)pyridine-3-carboxamide]
20 | +++ (“+++” means <3 uM) | C[C@@H]1CC[C@H](C)N1c1nc(-c2ccccc2)ccc1C(=O)NS(=O)(=O)c1cccc(N)n1 [Compound 805, N-[(6-amino-2-pyridyl)sulfonyl]-2-[(2S,5R)-2,5-dimethylpyrrolidin-1-yl]-6-phenyl-pyridine-3-carboxamide]
21 | ++ (“++” means between 3 uM and 10 uM) | Cc1cc(C)c(Oc2nc(-c3cnn(C(C)C)c3)ccc2C(=O)NS(=O)(=O)c2cccc(N)n2)c(C)c1 [Compound 808, N-[(6-amino-2-pyridyl)sulfonyl]-6-(1-isopropylpyrazol-4-yl)-2-(2,4,6-trimethylphenoxy)pyridine-3-carboxamide]
